The values that follow come from patent US20160082133A1, “CHEMICAL EXCHANGE SATURATION TRANSFER (CEST) BASED MRI USING REPORTER GENES AND SUBSTRATES AND METHODS THEREOF” (The Johns Hopkins University, priority 2013, published 2016).

Structures are written as SMILES.

In series [1] the test system is HSV1-TK. The class given is in vivo, mice. As to conditions: 3 h after iv injection, 150 mg/kg, 5 ppm, n=8. From the text:
(§1) At the last time point of the experiment the full CEST-spectrum was acquired for each animal with the same parameters described in the Experimental Section (main text) except the followings: CEST-weighted images were acquired with a modified RARE pulse sequence (TR/TE=6000/35 ms), using a 213 Hz/4000 ms saturation pulse from −6 to +6 ppm around the water resonance, which was assigned to be at 0 ppm. Pixel-based B0 correction was used as described before (Kim, M. et al. Magn Reson Med 2009, 61, 1441) using the same parameters as above except for TR=1500 ms, B1/tsat=21 Hz/500 ms, with a sweep range from −1 to +1 ppm (0.1 ppm steps). Mean CEST spectra were plotted from an ROI for each tumor and normal brain tissue, after B0 correction. MTRasym=100×(S^−Δω−S^Δω)/S0 was computed at different offsets Δω.
(§2) pcDNA3.1-HSV1-tk was used to transfect 9L rat glioma cells. A single clone was selected with 0.5 mg/mL G418 antibiotics. 9L^HSV1-tk and nontransfected wild type 9L cells (9L^wt) were inoculated (2×10^5 cells/2 μL saline) bilaterally into the striatum of adult NOD-SCID male mice to generate intracranial 9L tumors in both hemispheres.
(§3) Data were acquired using a horizontal 11.7 T MRI scanner (Bruker, Biospec) equipped with a circular polarized MRI transceiver coil (i.d.=23 mm) Seven days after cell transplantation, mice were anesthetized with 1.5% isoflurane, and a series of […] CEST data sets were obtained at 1, 2, and 3 h following intravenous (iv) injection of 2 in saline (150 mg/kg body). CEST weighted images were acquired with a modified RARE pulse sequence (TR/TE=6000/35 ms), using a 213 Hz/4000 ms saturation pulse alternating between ±5 ppm frequency offsets from the water frequency. For each time point, the MTRasym map was calculated from four pairs of s−5 ppm/s+5 ppm using MATLAB (Mathworks). A single 1 mm slice with FOV of 1.6×1.6 cm^2 and a 128×48 matrix was used.

Series [2] has as its target T1, HSV1-TK (Human herpesvirus 1, UniProt P0DTH5).
T1 construct: V5; expressed in transfected cells; host or cells: 9L rat glioma cells transfected with pcDNA3.1-HSV1-tk, single G418-selected clone, implanted in NOD-SCID mouse brain
Format: in vivo, mice.
Excerpt: as §1, §2, §3

T1 sequence (P0DTH5 whole entry): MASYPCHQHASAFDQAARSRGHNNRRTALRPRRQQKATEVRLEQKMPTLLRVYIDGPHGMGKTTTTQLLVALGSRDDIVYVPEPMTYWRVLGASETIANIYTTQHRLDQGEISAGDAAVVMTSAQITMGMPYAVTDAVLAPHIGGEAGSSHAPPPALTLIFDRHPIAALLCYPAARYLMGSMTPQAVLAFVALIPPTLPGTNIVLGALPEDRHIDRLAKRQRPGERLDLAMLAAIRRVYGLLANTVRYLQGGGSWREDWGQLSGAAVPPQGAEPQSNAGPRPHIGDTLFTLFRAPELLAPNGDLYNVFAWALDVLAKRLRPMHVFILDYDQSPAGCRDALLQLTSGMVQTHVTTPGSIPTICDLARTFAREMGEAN

As to `CC1(C)CN([C@H]2C[C@H](O)[C@@H](CO)O2)C(=O)NC1=O` [Compound 2, 5-Methyl-5,6-dihydrothymidine], in the series on HSV1-TK [1], the “normalized mean MTRasym values (ΔMTRasym), 9L^wt tumor” value is given as 2.0±1.7. For the same molecule, the “average difference in ΔMTRasym between the two tumor types (full CEST spectrum)” value on HSV1-TK [2] (5.0 ppm, last time point, N=8) was “approximately 0.77%”. Further, at HSV1-TK [2] (3 h after iv injection, 150 mg/kg, 5 ppm, n=8), the “normalized mean MTRasym values (ΔMTRasym), 9L^HSV1-tk tumor” value stood at 4.5±1.5. For the same molecule, on HSV1-TK [2] (from calibration curve, in vivo), the “estimated intracellular concentration in 9L^HSV1-tk tumors” value is “approximately 0.7 mM”.
